Laboratory results reported in ChEMBL document CHEMBL1201862, “PubChem BioAssay data set” (2004).
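Grown in 96-well plates, cells were treated for 48 hours with each compound at five concentrations. Insufficient inhibition: endpoint recorded as highest concentration tested. GI50 marks 50% less growth.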 Calls of active or inactive are those of the source. Rule as the data show it: active = GI50 up to about 1.1 µM and inactive = higher.

What was measured:
Assay in all cases: growth of human tumour cells (NCI), 48 h
786-0 = tested on: 786-0
BT-549 = tested on: BT-549
COLO 205 = tested on: COLO 205
DU-145 = tested on: DU-145
EKVX = tested on: EKVX
HCT-15 = tested on: HCT-15
HL-60 = tested on: HL-60
MDA-MB-435 = tested on: MDA-MB-435
NCI-H226 = tested on: NCI-H226
OVCAR-4 = tested on: OVCAR-4
OVCAR-5 = tested on: OVCAR-5
SNB-75 = tested on: SNB-75
SW-620 = tested on: SW-620
T47D = tested on: T47D
U-251 = tested on: U-251
UACC-257 = tested on: UACC-257
HCC 2998 = tested on: HCC 2998
NCI-H522 = tested on: NCI-H522
HOP-92 = tested on: HOP-92

Row | Structure (SMILES) | GI50 (786-0) | GI50 (BT-549) | GI50 (COLO 205) | GI50 (DU-145) | GI50 (EKVX) | GI50 (HCT-15) | GI50 (HL-60) | GI50 (MDA-MB-435) | GI50 (NCI-H226) | GI50 (OVCAR-4) | GI50 (OVCAR-5) | GI50 (SNB-75) | GI50 (SW-620) | GI50 (T47D) | GI50 (U-251) | GI50 (UACC-257) | GI50 (HCC 2998) | GI50 (NCI-H522) | GI50 (HOP-92)
1 | Cc1cccc(NC(=S)Nc2ccccc2Cl)n1 | 34.3 µM (inactive) | 59.7 µM (inactive) | > 100 µM (inactive) | > 100 µM (inactive) | 21.9 µM (inactive) | 76.9 µM | > 100 µM (inactive) | > 100 µM (inactive) | 39 µM (inactive) | 24.4 µM (inactive) | 81.7 µM (inactive) | 19.3 µM (inactive) | > 100 µM (inactive) | 29 µM (inactive) | 33.6 µM (inactive) | 22.2 µM (inactive) |  |  | 
2 | COc1ccc(N2C(=O)C3c4[nH]c5ccc(Br)cc5c4C4CCC(C(C)(C)C)CC4C3C2=O)cc1 (stereo not drawn) | > 100 µM (inactive) | > 100 µM (inactive) | > 100 µM (inactive) | > 100 µM (inactive) | > 100 µM (inactive) | > 100 µM | > 100 µM (inactive) | > 100 µM (inactive) | > 100 µM (inactive) | > 100 µM (inactive) | > 100 µM (inactive) |  | > 100 µM (inactive) |  | > 100 µM (inactive) | > 100 µM (inactive) | > 100 µM (inactive) | > 100 µM (inactive) | 
3 | CC(C)(C)OC(=O)NCC(=O)NC1C/C(=N\O)c2sccc21 (stereo not drawn) |  | > 100 µM (inactive) | > 100 µM (inactive) | > 100 µM (inactive) | > 100 µM (inactive) | > 100 µM | > 100 µM (inactive) | > 100 µM (inactive) | > 100 µM (inactive) | > 100 µM (inactive) | > 100 µM (inactive) | > 100 µM (inactive) | > 100 µM (inactive) | > 100 µM (inactive) | > 100 µM (inactive) | > 100 µM (inactive) | > 100 µM (inactive) |  | 
4 | O=C(CNc1ccccc1C(=O)O)Nn1cnc2ccc(S(=O)(=O)Nc3ccccc3C(=O)O)cc2c1=O | > 100 µM (inactive) | > 100 µM (inactive) | > 100 µM (inactive) | > 100 µM (inactive) | > 100 µM (inactive) | > 100 µM | > 100 µM (inactive) | > 100 µM (inactive) | > 100 µM (inactive) | > 100 µM (inactive) | > 100 µM (inactive) | > 100 µM (inactive) | > 100 µM (inactive) |  | > 100 µM (inactive) | > 100 µM (inactive) | > 100 µM (inactive) | > 100 µM (inactive) | > 100 µM (inactive)
5 | CCC(C)C1NC(=O)C2CCCN2C(=O)C(CC2CO2)OC(=O)CCNC(=O)C(C)N(C)C(=O)C(C(C)C)N(C)C1=O (stereo not drawn) | 0.0601 µM (active) | < 0.0414 µM (active) | < 0.0236 µM (active) |  | 35.4 µM (inactive) | 12.8 µM | < 0.0223 µM (active) | 0.111 µM (active) | > 5.08 µM (inactive) | 3.11 µM (inactive) | 1.43 µM (inactive) | 0.331 µM (active) | 0.0478 µM (active) | 6.05 µM (inactive) | 2.75 µM (inactive) | < 0.01 µM (active) | 21.8 µM (inactive) | 3.3 µM (inactive) | > 8.22 µM (inactive)
6 | Cc1nn(C(=O)Cc2ccccc2)c2c1C(c1ccc(Cl)cc1)SC(=N)N2 (stereo not drawn) | > 100 µM (inactive) | > 100 µM (inactive) | > 100 µM (inactive) | > 100 µM (inactive) | > 100 µM (inactive) | > 100 µM | > 100 µM (inactive) | > 100 µM (inactive) |  |  |  | 17.2 µM (inactive) | > 100 µM (inactive) | > 100 µM (inactive) |  | > 100 µM (inactive) | > 100 µM (inactive) | > 100 µM (inactive) | 
7 | SC1=NC2=C(CSC/C2=C\c2ccccc2)C(c2ccccc2)N1 (stereo not drawn) | 34.2 µM (inactive) | 26.2 µM (inactive) | 37.5 µM (inactive) | 95.1 µM (inactive) | 45.5 µM (inactive) | 41.7 µM | 15.2 µM (inactive) |  | 56.4 µM (inactive) | > 100 µM (inactive) | > 100 µM (inactive) |  | 48.3 µM (inactive) | 56.4 µM (inactive) | 35 µM (inactive) | 22.3 µM (inactive) | 42.5 µM (inactive) | 59.4 µM (inactive) | 37.6 µM (inactive)
8 | COc1ccc(-c2cc(-c3ccco3)c(C#N)c(=S)n2C2OC(CO)C(O)C(O)C2O)cc1 (stereo not drawn) | > 100 µM (inactive) | > 100 µM (inactive) | > 100 µM (inactive) | > 10 µM (inactive) | > 100 µM (inactive) | > 100 µM |  | > 100 µM (inactive) | > 100 µM (inactive) | > 100 µM (inactive) | > 100 µM (inactive) | > 100 µM (inactive) | > 100 µM (inactive) |  | 82.8 µM (inactive) | > 100 µM (inactive) | 25 µM (inactive) | > 100 µM (inactive) | 
9 | S=C1c2ccc(Cl)cc2-n2cnnc2C2CSCN12 (stereo not drawn) | > 100 µM (inactive) | > 100 µM (inactive) | > 100 µM (inactive) | > 100 µM (inactive) | > 100 µM (inactive) | > 100 µM |  | 95.1 µM (inactive) | > 100 µM (inactive) | > 100 µM (inactive) | > 100 µM (inactive) | > 100 µM (inactive) | > 100 µM (inactive) | > 100 µM (inactive) | > 100 µM (inactive) | > 100 µM (inactive) | > 100 µM (inactive) | > 100 µM (inactive) | 
